# Assay: Phase 1/2 first-in-human clinical study, safety evaluation (DLT, TEAE, SAE)
# Description: Arm A: Patients without azole antifungal treatment within 7 days (or 21 days for isavuconazole) of first dose of the present compound
# Arm B: Patients receiving posaconazole, voriconazole, or fluconazole antifungal prophylaxis at enrollment
# The safety of each dose level also was evaluated by the SRC, which was comprised of all investigators participating in the study and selected Sponsor study team members. The dose recommended by the BLRM method was treated as guidance and was integrated with a clinical assessment of toxicity information and review of other available data, including safety, PK, pharmacodynamic, and laboratory data.
# When the Dose Limiting Toxicity (DLT) evaluation for each cohort was completed, the SRC determined a next dose level based on the DLT and other available data, including safety, PK, pharmacodynamic, and laboratory data with reference to the Bayesian Logistic Regression Model (BLRM) recommendation.
# Dose escalation decisions were made after all patients in a dose level cohort have at least completed Cycle 1. All available data were presented along with the BLRM predictions for toxicity probabilities at the potential next dose levels. The SRC then determined the dose(s) for the next cohort(s).
compound,measurement,setting,value
"C=C1C[C@@H]2CC[C@H]1[C@@H](C(=O)N1CCC3(CC1)CN(c1ncncc1Oc1ccc(F)cc1C(=O)N(C(C)C)C(C)C)C3)N2 [the present compound, 5-fluoro-2-[(4-{7-[(1S,3S,4R)-5-methylidene-2-azabicyclo[2.2.2]octane-3-carbonyl]-2,7-diazaspiro[3.5]nonan-2-yl}pyrimidin-5-yl)oxy]-N,N-di(propan-2-yl)benzamide]",TEAE: Infections and Infestations,"Arm A N=14, ≥Grade 3",6 (42.9) n (%)
same,TEAE: Investigations,"Arm A N=14, ≥Grade 3",4 (28.6) n (%)
same,TEAE: Metabolism and nutrition disorders,"Arm A N=14, ≥Grade 3",1 (7.1) n (%)
same,TEAE: Musculoskeletal and connective tissue disorders,"Arm A N=14, ≥Grade 3",0 n (%)
same,TEAE: Nausea,"Arm A N=14, ≥Grade 3",0 n (%)
same,TEAE: Nervous System Disorders,"Arm A N=14, ≥Grade 3",2 (14.3) n (%)
same,TEAE: Oedema peripheral,"Arm A N=14, ≥Grade 3",0 n (%)
same,TEAE: Pain in extremity,"Arm A N=14, ≥Grade 3",0 n (%)
same,TEAE: Platelet count decreased,"Arm A N=14, ≥Grade 3",1 (7.1) n (%)
same,TEAE: Pneumonia,"Arm A N=14, ≥Grade 3",2 (14.3) n (%)
same,TEAE: Pruritus,"Arm A N=14, ≥Grade 3",0 n (%)
same,TEAE: Pyrexia,"Arm A N=14, ≥Grade 3",0 n (%)
same,"TEAE: Respiratory, thoracic and mediastinal disorders","Arm A N=14, ≥Grade 3",2 (14.3) n (%)
same,TEAE: Sepsis,"Arm A N=14, ≥Grade 3",2 (14.3) n (%)
same,TEAE: Skin and subcutaneous tissue disorders,"Arm A N=14, ≥Grade 3",0 n (%)
same,TEAE: Stomatitis,"Arm A N=14, ≥Grade 3",0 n (%)
same,TEAE: Vomiting,"Arm A N=14, ≥Grade 3",0 n (%)
same,related TEAE: Aspartate aminotransferase increased,"Arm A N=14, ≥Grade 3",0 n (%)
same,related TEAE: Blood and lymphatic system disorders,"Arm A N=14, ≥Grade 3",0 n (%)
same,related TEAE: Decreased appetite,"Arm A N=14, ≥Grade 3",0 n (%)
same,related TEAE: Differentiation syndrome,"Arm A N=14, ≥Grade 3",1 (7.1) n (%)
same,related TEAE: Gastrointestinal disorders,"Arm A N=14, ≥Grade 3",0 n (%)
same,related TEAE: General disorders and administration site conditions,"Arm A N=14, ≥Grade 3",0 n (%)
same,related TEAE: Headache,"Arm A N=14, ≥Grade 3",0 n (%)
same,related TEAE: Hypertriglyceridaemia,"Arm A N=14, ≥Grade 3",0 n (%)
same,related TEAE: Hyperuricaemia,"Arm A N=14, ≥Grade 3",0 n (%)
same,related TEAE: Increased appetite,"Arm A N=14, ≥Grade 3",0 n (%)
same,related TEAE: Investigations,"Arm A N=14, ≥Grade 3",0 n (%)
same,related TEAE: Leukocytosis,"Arm A N=14, ≥Grade 3",0 n (%)
same,related TEAE: Metabolism and nutrition disorders,"Arm A N=14, ≥Grade 3",0 n (%)
same,related TEAE: Nausea,"Arm A N=14, ≥Grade 3",0 n (%)
same,"related TEAE: Neoplasms benign, malignant and unspecified (incl cysts and polyps)","Arm A N=14, ≥Grade 3",1 (7.1) n (%)
same,related TEAE: Nervous system disorders,"Arm A N=14, ≥Grade 3",0 n (%)
same,related TEAE: Thirst,"Arm A N=14, ≥Grade 3",0 n (%)
same,related TEAE: Vomiting,"Arm A N=14, ≥Grade 3",0 n (%)
same,Patients with Any TEAE,"Arm B N=10, Any Grade",10 (100.0) n (%)
same,TEAE: Alanine aminotransferase increased,"Arm B N=10, Any Grade",2 (20.0) n (%)
same,TEAE: Anaemia,"Arm B N=10, Any Grade",1 (10.0) n (%)
same,TEAE: Aspartate aminotransferase increased,"Arm B N=10, Any Grade",2 (20.0) n (%)
same,TEAE: Blood and lymphatic system disorders,"Arm B N=10, Any Grade",3 (30.0) n (%)
same,TEAE: Constipation,"Arm B N=10, Any Grade",1 (10.0) n (%)
same,TEAE: Decreased appetite,"Arm B N=10, Any Grade",0 n (%)
same,TEAE: Disease progression,"Arm B N=10, Any Grade",2 (20.0) n (%)
same,TEAE: Dyspnoea,"Arm B N=10, Any Grade",1 (10.0) n (%)
same,TEAE: Epistaxis,"Arm B N=10, Any Grade",2 (20.0) n (%)
same,TEAE: Fatigue,"Arm B N=10, Any Grade",2 (20.0) n (%)
same,TEAE: Gastrointestinal disorders,"Arm B N=10, Any Grade",6 (60.0) n (%)
same,TEAE: General disorders and administration site disorders,"Arm B N=10, Any Grade",3 (30.0) n (%)
same,TEAE: Headache,"Arm B N=10, Any Grade",1 (20.0) n (%)
same,TEAE: Hemorrhoids,"Arm B N=10, Any Grade",2 (20.0) n (%)
same,TEAE: Hypertriglyceridaemia,"Arm B N=10, Any Grade",2 (20.0) n (%)
same,TEAE: Hypoalbuminaemia,"Arm B N=10, Any Grade",0 n (%)
same,TEAE: Hypocalcaemia,"Arm B N=10, Any Grade",1 (10.0) n (%)
same,TEAE: Hypokalaemia,"Arm B N=10, Any Grade",3 (30.0) n (%)
same,TEAE: Hypomagnaesemia,"Arm B N=10, Any Grade",0 n (%)
same,TEAE: Hyponatraemia,"Arm B N=10, Any Grade",0 n (%)
same,TEAE: Infections and Infestations,"Arm B N=10, Any Grade",6 (60.0) n (%)
same,TEAE: Investigations,"Arm B N=10, Any Grade",3 (30.0) n (%)
same,TEAE: Metabolism and nutrition disorders,"Arm B N=10, Any Grade",5 (50.0) n (%)
same,TEAE: Musculoskeletal and connective tissue disorders,"Arm B N=10, Any Grade",2 (20.0) n (%)
same,TEAE: Nausea,"Arm B N=10, Any Grade",3 (30.0) n (%)
same,TEAE: Nervous System Disorders,"Arm B N=10, Any Grade",2 (20.0) n (%)
same,TEAE: Oedema peripheral,"Arm B N=10, Any Grade",0 n (%)
same,TEAE: Pain in extremity,"Arm B N=10, Any Grade",1 (10.0) n (%)
same,TEAE: Platelet count decreased,"Arm B N=10, Any Grade",0 n (%)
same,TEAE: Pneumonia,"Arm B N=10, Any Grade",2 (20.0) n (%)
same,TEAE: Pruritus,"Arm B N=10, Any Grade",0 n (%)
same,TEAE: Pyrexia,"Arm B N=10, Any Grade",0 n (%)
same,"TEAE: Respiratory, thoracic and mediastinal disorders","Arm B N=10, Any Grade",3 (30.0) n (%)
same,TEAE: Sepsis,"Arm B N=10, Any Grade",2 (20.0) n (%)
same,TEAE: Skin and subcutaneous tissue disorders,"Arm B N=10, Any Grade",1 (10.0) n (%)
same,TEAE: Stomatitis,"Arm B N=10, Any Grade",2 (20.0) n (%)
same,TEAE: Vomiting,"Arm B N=10, Any Grade",1 (10.0) n (%)
same,related TEAE: Aspartate aminotransferase increased,"Arm B N=10, Any Grade",1 (10.0) n (%)
same,related TEAE: Blood and lymphatic system disorders,"Arm B N=10, Any Grade",1 (10.0) n (%)
same,related TEAE: Decreased appetite,"Arm B N=10, Any Grade",0 n (%)
same,related TEAE: Differentiation syndrome,"Arm B N=10, Any Grade",0 n (%)
same,related TEAE: Gastrointestinal disorders,"Arm B N=10, Any Grade",1 (10.0) n (%)
same,related TEAE: General disorders and administration site conditions,"Arm B N=10, Any Grade",0 n (%)
same,related TEAE: Headache,"Arm B N=10, Any Grade",0 n (%)
same,related TEAE: Hypertriglyceridaemia,"Arm B N=10, Any Grade",1 (10.0) n (%)
same,related TEAE: Hyperuricaemia,"Arm B N=10, Any Grade",0 n (%)
same,related TEAE: Increased appetite,"Arm B N=10, Any Grade",0 n (%)
same,related TEAE: Investigations,"Arm B N=10, Any Grade",1 (10.0) n (%)
same,related TEAE: Leukocytosis,"Arm B N=10, Any Grade",1 (10.0) n (%)
same,related TEAE: Metabolism and nutrition disorders,"Arm B N=10, Any Grade",1 (10.0) n (%)
same,related TEAE: Nausea,"Arm B N=10, Any Grade",1 (10.0) n (%)
same,"related TEAE: Neoplasms benign, malignant and unspecified (incl cysts and polyps)","Arm B N=10, Any Grade",0 n (%)
same,related TEAE: Nervous system disorders,"Arm B N=10, Any Grade",0 n (%)
same,related TEAE: Thirst,"Arm B N=10, Any Grade",0 n (%)
same,related TEAE: Vomiting,"Arm B N=10, Any Grade",1 (10.0) n (%)
same,Patients with Any TEAE,"Arm B N=10, ≥Grade 3",8 (80.0) n (%)
same,TEAE: Alanine aminotransferase increased,"Arm B N=10, ≥Grade 3",0 n (%)
same,TEAE: Anaemia,"Arm B N=10, ≥Grade 3",0 n (%)
same,TEAE: Aspartate aminotransferase increased,"Arm B N=10, ≥Grade 3",1 (10.0) n (%)
same,TEAE: Blood and lymphatic system disorders,"Arm B N=10, ≥Grade 3",3 (30.0) n (%)
same,TEAE: Constipation,"Arm B N=10, ≥Grade 3",0 n (%)
same,TEAE: Decreased appetite,"Arm B N=10, ≥Grade 3",0 n (%)

# From patent publication US20260248787A9, “MEDICAMENT FOR TREATING CANCER COMPRISING OPTICALLY ACTIVE AZABICYCLO RING DERIVATIVE” (Sumitomo Pharma Co., Ltd., priority 2023, published 2026)
